Results reported in ChEMBL document CHEMBL4507268 (2021).

Key:
Conditions in all cases: Compound concentration 1.0 uM
[1] = target: Tyrosine-protein kinase ABL2 (Homo sapiens) (UniProt P42684)
[2] = target: Calcium/calmodulin-dependent protein kinase type II subunit gamma (Homo sapiens) (UniProt Q13555)
[3] = target: T1, Serine/threonine-protein kinase DCLK2 (Homo sapiens) (UniProt Q8N568)
T1 sequence (whole entry): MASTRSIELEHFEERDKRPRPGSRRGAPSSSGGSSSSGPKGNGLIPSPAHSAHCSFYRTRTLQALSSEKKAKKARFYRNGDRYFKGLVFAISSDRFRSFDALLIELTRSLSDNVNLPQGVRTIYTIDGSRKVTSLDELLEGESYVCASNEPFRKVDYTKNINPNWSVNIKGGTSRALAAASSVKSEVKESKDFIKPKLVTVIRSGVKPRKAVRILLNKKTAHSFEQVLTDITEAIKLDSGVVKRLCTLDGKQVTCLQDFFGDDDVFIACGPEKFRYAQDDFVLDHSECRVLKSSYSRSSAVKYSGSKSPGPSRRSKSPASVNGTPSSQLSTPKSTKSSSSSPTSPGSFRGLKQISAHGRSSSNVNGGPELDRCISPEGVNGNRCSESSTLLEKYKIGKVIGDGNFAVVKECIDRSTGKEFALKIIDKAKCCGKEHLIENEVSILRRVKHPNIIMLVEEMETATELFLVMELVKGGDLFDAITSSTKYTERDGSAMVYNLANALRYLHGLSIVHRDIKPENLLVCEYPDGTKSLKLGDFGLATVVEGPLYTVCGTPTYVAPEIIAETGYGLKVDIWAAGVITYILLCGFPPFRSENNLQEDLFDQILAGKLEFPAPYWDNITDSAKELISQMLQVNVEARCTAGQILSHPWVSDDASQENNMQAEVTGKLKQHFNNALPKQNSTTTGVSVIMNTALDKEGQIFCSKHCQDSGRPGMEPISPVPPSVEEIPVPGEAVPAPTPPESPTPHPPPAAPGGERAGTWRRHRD

[4] = target: T2, G protein-coupled receptor kinase 3 (Homo sapiens) (UniProt P35626)
T2 sequence (whole entry): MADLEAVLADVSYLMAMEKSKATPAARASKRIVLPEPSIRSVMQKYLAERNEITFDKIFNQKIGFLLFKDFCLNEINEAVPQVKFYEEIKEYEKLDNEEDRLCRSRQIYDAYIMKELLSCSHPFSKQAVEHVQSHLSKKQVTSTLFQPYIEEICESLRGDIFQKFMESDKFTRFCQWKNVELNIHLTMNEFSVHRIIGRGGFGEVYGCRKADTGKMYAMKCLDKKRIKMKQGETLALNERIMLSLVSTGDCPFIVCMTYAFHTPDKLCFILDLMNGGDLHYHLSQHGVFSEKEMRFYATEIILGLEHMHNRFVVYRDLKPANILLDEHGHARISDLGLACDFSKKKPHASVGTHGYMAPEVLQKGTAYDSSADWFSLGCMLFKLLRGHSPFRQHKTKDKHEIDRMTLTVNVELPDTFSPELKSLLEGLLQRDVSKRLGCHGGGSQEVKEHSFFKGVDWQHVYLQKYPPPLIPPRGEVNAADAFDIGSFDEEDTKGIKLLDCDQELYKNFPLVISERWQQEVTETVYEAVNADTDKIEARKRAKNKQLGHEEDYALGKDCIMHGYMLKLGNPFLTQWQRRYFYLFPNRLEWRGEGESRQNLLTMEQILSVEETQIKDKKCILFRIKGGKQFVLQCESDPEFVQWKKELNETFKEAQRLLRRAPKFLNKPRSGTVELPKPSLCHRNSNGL

[5] = target: LIM domain kinase 2 (Homo sapiens) (UniProt P53671)
LIM domain kinase 2 (Homo sapiens), sequence (P53671 whole entry, looked up, the tested form may be a part): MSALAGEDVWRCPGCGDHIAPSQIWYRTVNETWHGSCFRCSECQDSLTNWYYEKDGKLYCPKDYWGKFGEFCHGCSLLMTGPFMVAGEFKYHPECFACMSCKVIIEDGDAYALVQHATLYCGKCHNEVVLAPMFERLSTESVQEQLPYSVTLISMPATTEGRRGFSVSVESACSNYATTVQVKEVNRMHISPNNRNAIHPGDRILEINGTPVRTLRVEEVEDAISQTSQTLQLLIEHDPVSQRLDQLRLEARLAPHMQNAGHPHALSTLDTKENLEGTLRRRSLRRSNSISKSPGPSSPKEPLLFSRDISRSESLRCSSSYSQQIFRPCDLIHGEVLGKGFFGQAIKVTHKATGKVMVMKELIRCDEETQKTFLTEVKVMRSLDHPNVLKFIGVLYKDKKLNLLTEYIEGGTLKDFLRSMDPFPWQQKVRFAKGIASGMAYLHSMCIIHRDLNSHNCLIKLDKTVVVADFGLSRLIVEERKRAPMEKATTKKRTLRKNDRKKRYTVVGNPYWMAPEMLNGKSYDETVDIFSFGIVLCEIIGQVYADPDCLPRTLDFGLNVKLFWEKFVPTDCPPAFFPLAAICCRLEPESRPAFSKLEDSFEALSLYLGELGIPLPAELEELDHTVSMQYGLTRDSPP

[6] = target: T3, Myosin-IIIb (Homo sapiens) (UniProt Q8WXR4)
T3 sequence (whole entry): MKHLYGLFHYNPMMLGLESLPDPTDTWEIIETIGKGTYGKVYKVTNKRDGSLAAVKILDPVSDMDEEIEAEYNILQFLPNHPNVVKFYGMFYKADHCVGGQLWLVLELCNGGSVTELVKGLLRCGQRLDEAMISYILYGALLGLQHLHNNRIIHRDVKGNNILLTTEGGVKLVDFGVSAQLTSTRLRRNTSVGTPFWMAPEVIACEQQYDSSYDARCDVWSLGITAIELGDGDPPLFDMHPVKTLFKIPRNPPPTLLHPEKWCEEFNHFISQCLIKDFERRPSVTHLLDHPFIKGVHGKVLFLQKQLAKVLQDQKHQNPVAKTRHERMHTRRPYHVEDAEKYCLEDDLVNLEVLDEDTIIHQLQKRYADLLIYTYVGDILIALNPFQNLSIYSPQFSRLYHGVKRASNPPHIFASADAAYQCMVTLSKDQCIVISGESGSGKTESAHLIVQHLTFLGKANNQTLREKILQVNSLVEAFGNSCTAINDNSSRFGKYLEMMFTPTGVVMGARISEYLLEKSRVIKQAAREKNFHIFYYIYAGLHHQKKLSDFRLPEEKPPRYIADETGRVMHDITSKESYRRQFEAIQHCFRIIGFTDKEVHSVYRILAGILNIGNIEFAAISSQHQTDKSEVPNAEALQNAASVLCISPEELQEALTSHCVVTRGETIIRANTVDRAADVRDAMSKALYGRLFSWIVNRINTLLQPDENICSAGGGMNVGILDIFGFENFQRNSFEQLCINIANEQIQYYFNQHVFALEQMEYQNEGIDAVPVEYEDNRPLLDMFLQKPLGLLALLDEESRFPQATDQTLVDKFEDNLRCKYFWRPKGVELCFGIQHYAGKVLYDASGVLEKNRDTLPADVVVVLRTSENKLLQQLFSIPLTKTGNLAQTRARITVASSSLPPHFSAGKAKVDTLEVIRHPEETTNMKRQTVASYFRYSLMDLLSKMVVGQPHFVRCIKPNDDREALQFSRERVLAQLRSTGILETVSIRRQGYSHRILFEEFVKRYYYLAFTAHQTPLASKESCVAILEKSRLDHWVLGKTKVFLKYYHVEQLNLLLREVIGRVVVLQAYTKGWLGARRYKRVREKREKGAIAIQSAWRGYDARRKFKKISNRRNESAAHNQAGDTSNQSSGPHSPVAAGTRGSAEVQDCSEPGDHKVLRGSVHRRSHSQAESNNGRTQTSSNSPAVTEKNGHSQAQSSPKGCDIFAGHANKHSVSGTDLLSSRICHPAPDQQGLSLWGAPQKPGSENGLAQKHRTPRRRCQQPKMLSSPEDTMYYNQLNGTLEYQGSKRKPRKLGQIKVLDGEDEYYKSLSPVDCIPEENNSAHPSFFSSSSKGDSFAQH

[7] = target: Phosphatidylinositol 4-phosphate 3-kinase C2 domain-containing subunit alpha (Homo sapiens) (UniProt O00443)
Phosphatidylinositol 4-phosphate 3-kinase C2 domain-containing subunit alpha (Homo sapiens), sequence (O00443 whole entry, the tested form may be a part): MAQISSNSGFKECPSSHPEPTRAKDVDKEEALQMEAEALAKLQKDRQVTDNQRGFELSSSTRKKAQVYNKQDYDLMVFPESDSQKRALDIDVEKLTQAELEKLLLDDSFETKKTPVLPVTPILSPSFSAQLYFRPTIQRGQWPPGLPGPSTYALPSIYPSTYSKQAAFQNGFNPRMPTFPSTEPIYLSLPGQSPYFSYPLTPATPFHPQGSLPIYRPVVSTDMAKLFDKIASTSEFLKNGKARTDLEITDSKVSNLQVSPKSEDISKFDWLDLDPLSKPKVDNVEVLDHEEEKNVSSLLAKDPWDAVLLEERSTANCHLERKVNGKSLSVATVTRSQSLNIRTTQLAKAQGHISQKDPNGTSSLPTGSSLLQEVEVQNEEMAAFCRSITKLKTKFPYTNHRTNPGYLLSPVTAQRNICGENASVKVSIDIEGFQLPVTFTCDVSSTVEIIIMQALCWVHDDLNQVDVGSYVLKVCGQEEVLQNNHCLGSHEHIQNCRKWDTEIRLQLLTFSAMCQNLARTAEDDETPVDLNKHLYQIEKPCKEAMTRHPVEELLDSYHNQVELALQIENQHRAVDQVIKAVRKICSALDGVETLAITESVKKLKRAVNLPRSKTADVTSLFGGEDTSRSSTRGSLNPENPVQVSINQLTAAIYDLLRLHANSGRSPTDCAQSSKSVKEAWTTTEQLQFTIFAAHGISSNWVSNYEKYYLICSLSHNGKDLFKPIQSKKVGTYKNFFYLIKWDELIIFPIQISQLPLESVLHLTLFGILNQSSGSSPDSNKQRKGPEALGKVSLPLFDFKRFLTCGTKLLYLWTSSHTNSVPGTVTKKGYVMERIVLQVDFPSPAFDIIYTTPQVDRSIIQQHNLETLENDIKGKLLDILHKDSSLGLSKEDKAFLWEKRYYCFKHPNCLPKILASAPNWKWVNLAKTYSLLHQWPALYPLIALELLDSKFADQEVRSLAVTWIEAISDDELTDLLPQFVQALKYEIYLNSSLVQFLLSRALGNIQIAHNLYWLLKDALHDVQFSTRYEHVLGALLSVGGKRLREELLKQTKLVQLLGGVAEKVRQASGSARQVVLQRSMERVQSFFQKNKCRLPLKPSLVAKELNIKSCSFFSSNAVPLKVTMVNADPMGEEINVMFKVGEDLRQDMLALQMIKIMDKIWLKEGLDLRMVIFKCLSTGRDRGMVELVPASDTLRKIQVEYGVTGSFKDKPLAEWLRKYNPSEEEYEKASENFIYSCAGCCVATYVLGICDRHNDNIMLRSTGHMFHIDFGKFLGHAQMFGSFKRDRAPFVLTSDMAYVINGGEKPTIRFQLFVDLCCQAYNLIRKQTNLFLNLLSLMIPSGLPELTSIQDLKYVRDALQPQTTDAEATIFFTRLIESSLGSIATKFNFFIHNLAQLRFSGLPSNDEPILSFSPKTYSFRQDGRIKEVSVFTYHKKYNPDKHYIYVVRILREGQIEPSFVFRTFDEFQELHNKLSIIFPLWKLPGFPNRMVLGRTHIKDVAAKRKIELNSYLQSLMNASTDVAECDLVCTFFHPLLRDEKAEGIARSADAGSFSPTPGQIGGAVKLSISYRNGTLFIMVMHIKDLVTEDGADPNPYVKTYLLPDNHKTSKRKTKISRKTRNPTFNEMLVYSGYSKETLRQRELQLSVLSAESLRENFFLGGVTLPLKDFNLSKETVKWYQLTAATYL

Measured: % residual kinase activity

Calcium/calmodulin-dependent protein kinase type II subunit gamma (Homo sapiens), sequence (Q13555 whole entry): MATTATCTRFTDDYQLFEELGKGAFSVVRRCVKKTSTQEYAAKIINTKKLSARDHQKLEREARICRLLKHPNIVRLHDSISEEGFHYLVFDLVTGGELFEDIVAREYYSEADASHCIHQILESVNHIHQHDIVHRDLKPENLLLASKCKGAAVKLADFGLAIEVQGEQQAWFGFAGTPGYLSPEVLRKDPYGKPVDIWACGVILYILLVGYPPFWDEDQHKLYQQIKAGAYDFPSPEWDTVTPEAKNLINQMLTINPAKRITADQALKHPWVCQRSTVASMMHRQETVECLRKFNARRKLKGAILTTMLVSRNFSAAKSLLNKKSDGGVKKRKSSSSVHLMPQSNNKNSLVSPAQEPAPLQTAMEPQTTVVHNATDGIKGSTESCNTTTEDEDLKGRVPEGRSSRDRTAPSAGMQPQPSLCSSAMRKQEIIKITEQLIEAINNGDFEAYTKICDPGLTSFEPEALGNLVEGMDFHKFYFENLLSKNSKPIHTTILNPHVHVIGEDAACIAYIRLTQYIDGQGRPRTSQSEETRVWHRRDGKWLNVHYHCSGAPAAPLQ
Tyrosine-protein kinase ABL2 (Homo sapiens), sequence (P42684 whole entry): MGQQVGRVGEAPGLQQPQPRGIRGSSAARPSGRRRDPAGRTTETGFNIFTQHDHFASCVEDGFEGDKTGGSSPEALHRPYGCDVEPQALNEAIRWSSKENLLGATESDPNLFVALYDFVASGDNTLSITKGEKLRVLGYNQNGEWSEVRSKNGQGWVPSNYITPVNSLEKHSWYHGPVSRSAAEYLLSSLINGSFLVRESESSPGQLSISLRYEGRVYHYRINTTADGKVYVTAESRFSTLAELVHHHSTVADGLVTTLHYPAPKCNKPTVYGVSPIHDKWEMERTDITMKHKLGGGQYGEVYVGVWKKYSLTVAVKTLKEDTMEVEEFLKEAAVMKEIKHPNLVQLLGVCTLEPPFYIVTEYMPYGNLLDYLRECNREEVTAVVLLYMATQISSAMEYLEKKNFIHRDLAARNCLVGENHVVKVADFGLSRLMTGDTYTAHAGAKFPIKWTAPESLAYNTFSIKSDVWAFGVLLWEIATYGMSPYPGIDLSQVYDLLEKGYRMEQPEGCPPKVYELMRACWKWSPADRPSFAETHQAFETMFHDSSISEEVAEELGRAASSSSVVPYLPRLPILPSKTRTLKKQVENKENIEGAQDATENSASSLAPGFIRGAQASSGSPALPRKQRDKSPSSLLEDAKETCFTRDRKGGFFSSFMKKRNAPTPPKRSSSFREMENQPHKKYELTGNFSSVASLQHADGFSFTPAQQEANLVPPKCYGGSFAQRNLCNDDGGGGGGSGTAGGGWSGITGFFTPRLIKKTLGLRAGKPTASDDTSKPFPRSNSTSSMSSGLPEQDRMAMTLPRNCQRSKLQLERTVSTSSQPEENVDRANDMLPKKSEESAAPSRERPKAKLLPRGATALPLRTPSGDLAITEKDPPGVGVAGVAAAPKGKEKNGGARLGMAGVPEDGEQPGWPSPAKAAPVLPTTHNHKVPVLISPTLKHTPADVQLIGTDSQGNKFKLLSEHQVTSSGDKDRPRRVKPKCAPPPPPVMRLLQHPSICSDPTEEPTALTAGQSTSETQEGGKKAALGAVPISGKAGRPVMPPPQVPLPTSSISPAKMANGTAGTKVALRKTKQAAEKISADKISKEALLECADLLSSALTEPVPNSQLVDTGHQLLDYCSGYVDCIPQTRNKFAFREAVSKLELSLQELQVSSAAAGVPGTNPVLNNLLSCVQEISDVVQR

CN1CCN(c2cnc3c(C4CCN(C(=O)c5ccc(OC(F)(F)F)cc5N)CC4)ncnc3c2)CC1 [BAY-885]
inactive: [1] 93% | [2] 93% | [3] 90% | [4] 92% | [5] 104% | [6] 111% | [7] 96%
